{"source": "patent EP0181129B1", "about": "“N6-substituted deoxyribose analogs of adenosines” (WARNER-LAMBERT COMPANY, priority 1984, dated 1986)", "note": "pIC50: −log10 of the molar value.", "data": [{"molecular_target": "T1, adenosine A1 receptor (Rattus norvegicus, UniProt P25099)", "T1 construct": "brain minus cerebellum and brainstem from male Long Evans rats (150-200 g) was homogenized; from tissue; host or cells: rat whole brain minus cerebellum and brainstem, membrane homogenate", "T1 sequence (P25099 1-326)": "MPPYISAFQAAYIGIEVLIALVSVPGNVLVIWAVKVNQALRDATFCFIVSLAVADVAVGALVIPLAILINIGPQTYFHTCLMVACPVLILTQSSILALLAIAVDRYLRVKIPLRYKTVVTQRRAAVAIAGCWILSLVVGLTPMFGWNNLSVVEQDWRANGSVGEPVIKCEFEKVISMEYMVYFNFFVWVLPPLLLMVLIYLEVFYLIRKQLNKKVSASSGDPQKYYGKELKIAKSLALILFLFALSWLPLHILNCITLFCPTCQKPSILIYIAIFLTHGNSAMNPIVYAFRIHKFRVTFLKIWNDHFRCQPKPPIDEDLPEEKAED", "experiment": "Adenosine Receptor Binding - A1 Receptor Affinity (RBA1), [3H]-CHA displacement", "details": "1.0 nM [3H]-CHA, rat whole brain membranes, one hour at 25°C; read-out: Receptor Binding RBA—1", "procedure": "While brain minus cerebellum and brainstem from male Long Evans rats (150-200 g) was homogenized in 30 volumes of ice-cold 0.05 M Tris-CHI buffer pH 7.7 using a Brinkman Polytron PT-10, (setting number 6 for 20 seconds) and centrifuged for ten minutes at 20,000 x g (Sorvall RC-2), 4°C. The supernatant was discarded, and the pellet was resuspended and centrifuged as before. The pellet was resuspended in 20 ml Tris-HCI buffer containing two International Units/ml of adenosine deaminase (Sigma type III from calf intestinal mucosa), incubated at 37°C for 30 minutes, then subsequently at 0°C for ten minutes. The homogenate was again centrifuged, and the final pellet was resuspended in ice-cold 0.05 M Tris-HCI buffer pH 7.7 to a concentration of 20 mg/ml original wet tissue weight and used immediately.\nTissue homogenate (10 mg/ml) was incubated in 0.05 M Tris-HCI buffer pH 7.7 containing 1.0 nM (^3H]-N^e-cyclohexyladenosine ([^3H]-CHA) with or without tests agents in triplicate for one hour at 25°C. Incubation volume was 2 ml. Unbound [^3H]-CHA was separated by rapid filtration under reduced pressure through Whatman glass fiber (GF/B) filters. The filters were rinsed three times with 5 ml of ice cold 0.05 M Tris-HCI buffer pH 7.7. The radio-labeled ligand retained on the filter was measured by liquid scintillation spectrophotometry after shaking the filters for one hour or longer on a mechanical shaker in 10 ml of Beckman Ready-Solv HP scintillation cocktail.\nNonspecific binding was defined as the binding which occurred in the presence of 1 mM theophylline. […] The Scatchard plot was calculated by linear regression of the line obtained by plotting the amount of radioligand bound (pmoles/gram of tissue) [formula] Since the amount of radioligand bound was a small fraction of the total amount added, free radioligand was defined as the concentration (nM) of radioligand added to the incubation mixture. The Hill coefficient was calculated by linear regression of the line obtained by plotting the log of the bound radioligand vs the log of the [formula] The maximal number of binding sites (Bmax) was calculated from the Scatchard plot.", "values": [{"smiles": "C[C@H]1O[C@@H](n2cnc3c(NC4CCCc5ccccc54)ncnc32)[C@H](O)[C@@H]1O", "note": "(stereo partly drawn) [Example 19, N^6-1-Tetralinyl-5' -deoxyadenosine]", "pIC50": 5.86}, {"smiles": "C[C@H]1O[C@@H](n2cnc3c(NCc4cccc5ccccc45)ncnc32)[C@H](O)[C@@H]1O", "note": "[Example 20, N^6-α-Naphthylmethyl-5' -deoxyadenosine]", "pIC50": 6.00}, {"smiles": "O[C@@H]1[C@H](O)[C@@H](CCl)O[C@H]1n1cnc2c(NC3CCc4ccccc43)ncnc21", "note": "(stereo partly drawn) [Example 23, (R)-N^6(1-Indanyl)-5'-deoxy-5'-chloroadenosine]", "pIC50": 7.10}]}]}
